Publication PMC12136037, “Type II kinase inhibitors that target Parkinson’s disease–associated LRRK2” (Science Advances, 2025)

Key:
Assay in all cases: DSF 100 kinase selectivity screen;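 further: compound tested at 20 µM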
Format in all cases: binding
[1] = biological target: T1, ~100 representative kinases (Homo sapiens, UniProt P34947); conditions: protein GPRK5; average of three replicates
T1 construct: Recombinant protein kinase domains with a concentration of 2 μM
Procedure: (§1) Recombinant protein kinase domains with a concentration of 2 μM were mixed with a 20 μM compound solution in dimethyl sulfoxide (DMSO), 20 mM Hepes (pH 7.5), and 500 mM NaCl. SYPRO Orange (5000×, Invitrogen) was added as a fluorescence probe (1μl/ml). Subsequently, temperature-dependent protein unfolding profiles were measured using the QuantStudio 5 realtime PCR machine (Thermo Fisher Scientific, Waltham, MA, USA). […] The temperature was raised with a step rate of 3°C/min. […] Differences in melting temperature are given as ΔTm values in degrees Celsius. […]

[2] = biological target: T2, ~100 representative kinases (Homo sapiens, UniProt P54756); conditions: Protein EPHA5; average of three replicates
T2 construct: Recombinant protein kinase domains with a concentration of 2 μM
Procedure: as §1

[3] = biological target: T3, ~100 representative kinases (Homo sapiens, UniProt P55201); conditions: Protein BRPF1; average of three replicates
T3 construct: Recombinant protein kinase domains with a concentration of 2 μM
T3 sequence (P55201 1-1214): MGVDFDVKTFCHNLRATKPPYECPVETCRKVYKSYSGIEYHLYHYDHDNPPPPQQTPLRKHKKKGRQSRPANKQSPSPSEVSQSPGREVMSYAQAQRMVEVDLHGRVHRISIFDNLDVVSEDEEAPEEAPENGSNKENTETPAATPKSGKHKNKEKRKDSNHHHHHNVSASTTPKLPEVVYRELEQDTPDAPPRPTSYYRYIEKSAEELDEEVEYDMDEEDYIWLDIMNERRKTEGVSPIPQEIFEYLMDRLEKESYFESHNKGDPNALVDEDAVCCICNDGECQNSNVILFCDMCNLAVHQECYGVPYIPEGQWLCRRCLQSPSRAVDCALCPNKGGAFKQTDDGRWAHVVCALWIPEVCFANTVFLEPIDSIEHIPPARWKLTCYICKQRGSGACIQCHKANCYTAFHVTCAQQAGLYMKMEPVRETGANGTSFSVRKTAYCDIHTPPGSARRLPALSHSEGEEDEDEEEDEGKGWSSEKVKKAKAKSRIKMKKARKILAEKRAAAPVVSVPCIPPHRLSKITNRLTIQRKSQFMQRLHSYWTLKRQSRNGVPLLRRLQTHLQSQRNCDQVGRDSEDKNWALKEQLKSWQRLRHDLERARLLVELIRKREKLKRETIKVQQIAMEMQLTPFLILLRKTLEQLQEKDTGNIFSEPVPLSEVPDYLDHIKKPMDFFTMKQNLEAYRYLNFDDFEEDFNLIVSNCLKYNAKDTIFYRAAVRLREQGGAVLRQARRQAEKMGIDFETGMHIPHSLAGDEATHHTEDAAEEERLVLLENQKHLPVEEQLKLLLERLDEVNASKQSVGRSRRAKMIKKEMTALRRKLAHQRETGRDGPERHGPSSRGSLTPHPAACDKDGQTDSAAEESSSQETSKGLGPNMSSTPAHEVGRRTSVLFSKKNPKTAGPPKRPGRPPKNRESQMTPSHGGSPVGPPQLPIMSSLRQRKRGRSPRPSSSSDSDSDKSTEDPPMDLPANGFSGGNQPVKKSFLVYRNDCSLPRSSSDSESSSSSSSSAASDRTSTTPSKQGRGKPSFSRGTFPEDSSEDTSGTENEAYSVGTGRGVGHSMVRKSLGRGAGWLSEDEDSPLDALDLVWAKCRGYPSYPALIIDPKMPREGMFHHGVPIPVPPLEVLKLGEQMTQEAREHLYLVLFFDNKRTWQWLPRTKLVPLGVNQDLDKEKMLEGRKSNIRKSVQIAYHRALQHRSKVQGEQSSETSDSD
Procedure: as §1

[4] = biological target: T4, ~100 representative kinases (Homo sapiens, UniProt Q00532); conditions: Protein CDKL1; average of three replicates
T4 construct: Recombinant protein kinase domains with a concentration of 2 μM
Procedure: as §1

[5] = biological target: T5, ~100 representative kinases (Homo sapiens, UniProt Q00536); conditions: protein PCTK1; average of three replicates
T5 construct: Recombinant protein kinase domains with a concentration of 2 μM
Procedure: as §1

[6] = biological target: T6, ~100 representative kinases (Homo sapiens, UniProt Q09013); conditions: Protein DMPK1; average of three replicates
T6 construct: Recombinant protein kinase domains with a concentration of 2 μM
T6 sequence (Q09013 1-629): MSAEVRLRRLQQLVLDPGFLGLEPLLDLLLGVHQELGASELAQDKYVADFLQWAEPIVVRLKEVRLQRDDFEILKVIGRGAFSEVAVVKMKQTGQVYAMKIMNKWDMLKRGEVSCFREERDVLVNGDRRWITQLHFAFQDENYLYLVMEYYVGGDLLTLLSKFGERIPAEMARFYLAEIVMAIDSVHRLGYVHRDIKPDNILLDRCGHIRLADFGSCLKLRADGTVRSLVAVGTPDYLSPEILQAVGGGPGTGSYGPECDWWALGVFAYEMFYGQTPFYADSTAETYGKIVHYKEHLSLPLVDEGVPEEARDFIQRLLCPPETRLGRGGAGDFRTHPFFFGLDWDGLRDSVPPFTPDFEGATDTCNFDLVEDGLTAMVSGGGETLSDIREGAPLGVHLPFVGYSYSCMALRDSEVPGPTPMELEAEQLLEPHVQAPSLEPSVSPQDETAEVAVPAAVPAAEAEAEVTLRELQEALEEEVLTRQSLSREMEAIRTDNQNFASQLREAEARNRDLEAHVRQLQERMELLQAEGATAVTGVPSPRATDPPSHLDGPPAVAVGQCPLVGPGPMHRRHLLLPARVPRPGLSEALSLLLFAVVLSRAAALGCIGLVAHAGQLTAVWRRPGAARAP
Procedure: as §1

[7] = biological target: T7, ~100 representative kinases (Homo sapiens, UniProt Q2M2I8); conditions: Protein AAK1; average of three replicates
T7 construct: Recombinant protein kinase domains with a concentration of 2 μM
Procedure: as §1

[8] = biological target: T8, ~100 representative kinases (Homo sapiens, UniProt Q96NX5); conditions: Protein CAMK1G; average of three replicates
T8 construct: Recombinant protein kinase domains with a concentration of 2 μM
Procedure: as §1

[9] = biological target: T9, ~100 representative kinases (Homo sapiens, UniProt Q9NSY1); conditions: Protein BMP2K; average of three replicates
T9 construct: Recombinant protein kinase domains with a concentration of 2 μM
Procedure: as §1

[10] = biological target: T10, ~100 representative kinases (Homo sapiens, UniProt Q9Y243); conditions: Protein AKT3; average of three replicates
T10 construct: Recombinant protein kinase domains with a concentration of 2 μM
Procedure: as §1

T4 sequence (Q00532 whole entry, the tested form may be a part): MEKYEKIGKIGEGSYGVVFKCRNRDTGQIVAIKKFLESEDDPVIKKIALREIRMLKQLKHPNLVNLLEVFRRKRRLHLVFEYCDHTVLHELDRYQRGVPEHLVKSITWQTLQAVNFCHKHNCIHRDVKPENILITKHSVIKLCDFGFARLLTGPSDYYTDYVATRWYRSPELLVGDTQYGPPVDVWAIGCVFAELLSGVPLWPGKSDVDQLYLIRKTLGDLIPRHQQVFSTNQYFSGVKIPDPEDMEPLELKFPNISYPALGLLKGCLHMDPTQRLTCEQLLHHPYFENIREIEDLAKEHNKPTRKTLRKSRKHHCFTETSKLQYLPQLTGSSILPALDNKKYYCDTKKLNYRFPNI
T5 sequence (Q00536 whole entry, the tested form may be a part): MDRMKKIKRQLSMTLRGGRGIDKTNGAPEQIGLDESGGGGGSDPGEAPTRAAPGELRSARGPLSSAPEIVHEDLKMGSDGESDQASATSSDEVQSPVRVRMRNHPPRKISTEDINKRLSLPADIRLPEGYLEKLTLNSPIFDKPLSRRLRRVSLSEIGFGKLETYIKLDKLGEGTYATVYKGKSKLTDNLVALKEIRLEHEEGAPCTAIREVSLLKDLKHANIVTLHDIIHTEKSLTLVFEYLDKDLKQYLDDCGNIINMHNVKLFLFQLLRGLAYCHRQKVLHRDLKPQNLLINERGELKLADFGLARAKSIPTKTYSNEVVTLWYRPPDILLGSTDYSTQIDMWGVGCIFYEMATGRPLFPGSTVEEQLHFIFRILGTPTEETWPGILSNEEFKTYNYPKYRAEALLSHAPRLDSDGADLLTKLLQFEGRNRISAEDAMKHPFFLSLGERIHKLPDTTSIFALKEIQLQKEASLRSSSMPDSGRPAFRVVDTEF
T9 sequence (Q9NSY1 whole entry, the tested form may be a part): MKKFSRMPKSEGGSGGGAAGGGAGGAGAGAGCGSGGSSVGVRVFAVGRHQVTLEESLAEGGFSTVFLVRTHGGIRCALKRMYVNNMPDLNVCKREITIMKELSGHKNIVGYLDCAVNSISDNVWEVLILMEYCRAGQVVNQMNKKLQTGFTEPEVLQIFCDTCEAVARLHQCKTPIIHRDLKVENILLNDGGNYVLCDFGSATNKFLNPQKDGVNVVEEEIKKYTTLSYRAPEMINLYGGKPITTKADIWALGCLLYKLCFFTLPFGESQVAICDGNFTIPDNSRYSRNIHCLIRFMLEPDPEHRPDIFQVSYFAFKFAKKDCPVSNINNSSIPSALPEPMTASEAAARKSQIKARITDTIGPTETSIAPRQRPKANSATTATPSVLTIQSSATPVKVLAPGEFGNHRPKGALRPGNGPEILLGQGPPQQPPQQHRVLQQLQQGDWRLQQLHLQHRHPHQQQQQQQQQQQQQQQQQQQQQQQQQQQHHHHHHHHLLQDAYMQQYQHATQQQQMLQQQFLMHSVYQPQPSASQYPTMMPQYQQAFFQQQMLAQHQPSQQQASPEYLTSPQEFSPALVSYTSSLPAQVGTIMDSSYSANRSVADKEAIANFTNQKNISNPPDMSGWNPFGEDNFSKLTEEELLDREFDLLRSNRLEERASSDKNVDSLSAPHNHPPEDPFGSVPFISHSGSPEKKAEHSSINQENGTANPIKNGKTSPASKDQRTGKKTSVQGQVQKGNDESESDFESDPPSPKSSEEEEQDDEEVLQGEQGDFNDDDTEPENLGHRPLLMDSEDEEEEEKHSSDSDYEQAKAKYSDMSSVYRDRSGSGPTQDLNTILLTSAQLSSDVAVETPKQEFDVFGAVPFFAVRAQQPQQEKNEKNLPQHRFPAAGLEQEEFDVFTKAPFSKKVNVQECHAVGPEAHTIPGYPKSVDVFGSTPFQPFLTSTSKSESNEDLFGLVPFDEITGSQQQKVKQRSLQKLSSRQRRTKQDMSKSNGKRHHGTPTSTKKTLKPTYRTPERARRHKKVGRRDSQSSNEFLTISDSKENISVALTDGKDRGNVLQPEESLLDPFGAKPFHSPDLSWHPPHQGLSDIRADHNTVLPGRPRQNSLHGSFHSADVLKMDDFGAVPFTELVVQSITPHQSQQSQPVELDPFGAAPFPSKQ
T10 sequence (Q9Y243 whole entry, the tested form may be a part): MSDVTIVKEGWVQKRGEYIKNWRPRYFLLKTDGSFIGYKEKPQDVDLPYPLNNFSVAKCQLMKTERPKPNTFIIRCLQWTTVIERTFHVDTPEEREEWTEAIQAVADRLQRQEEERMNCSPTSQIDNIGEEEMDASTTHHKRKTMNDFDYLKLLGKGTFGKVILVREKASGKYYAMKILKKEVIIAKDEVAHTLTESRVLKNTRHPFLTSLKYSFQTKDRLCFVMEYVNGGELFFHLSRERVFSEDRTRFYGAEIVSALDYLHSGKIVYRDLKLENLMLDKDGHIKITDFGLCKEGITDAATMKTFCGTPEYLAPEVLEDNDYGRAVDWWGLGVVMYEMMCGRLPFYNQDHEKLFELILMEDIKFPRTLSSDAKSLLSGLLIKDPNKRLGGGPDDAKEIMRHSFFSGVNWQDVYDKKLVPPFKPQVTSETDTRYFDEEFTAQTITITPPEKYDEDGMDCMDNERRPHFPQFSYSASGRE
T1 sequence (P34947 whole entry, the tested form may be a part): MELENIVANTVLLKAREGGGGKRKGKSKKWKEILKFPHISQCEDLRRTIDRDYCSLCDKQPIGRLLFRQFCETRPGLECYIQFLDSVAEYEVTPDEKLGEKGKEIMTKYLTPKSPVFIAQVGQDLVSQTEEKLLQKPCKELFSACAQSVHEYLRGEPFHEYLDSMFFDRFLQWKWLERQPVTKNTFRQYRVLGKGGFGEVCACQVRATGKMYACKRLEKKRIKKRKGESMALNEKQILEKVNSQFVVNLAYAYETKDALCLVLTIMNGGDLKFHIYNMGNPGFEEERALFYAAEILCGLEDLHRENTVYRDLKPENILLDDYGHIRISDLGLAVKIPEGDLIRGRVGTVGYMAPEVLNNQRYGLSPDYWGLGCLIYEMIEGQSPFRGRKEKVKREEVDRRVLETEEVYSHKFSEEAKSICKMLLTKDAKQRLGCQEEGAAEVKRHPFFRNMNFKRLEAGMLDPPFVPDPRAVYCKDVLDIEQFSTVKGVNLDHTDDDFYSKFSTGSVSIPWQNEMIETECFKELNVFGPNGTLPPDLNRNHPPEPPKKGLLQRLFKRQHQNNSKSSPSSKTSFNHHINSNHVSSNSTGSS
T2 sequence (P54756 25-1037): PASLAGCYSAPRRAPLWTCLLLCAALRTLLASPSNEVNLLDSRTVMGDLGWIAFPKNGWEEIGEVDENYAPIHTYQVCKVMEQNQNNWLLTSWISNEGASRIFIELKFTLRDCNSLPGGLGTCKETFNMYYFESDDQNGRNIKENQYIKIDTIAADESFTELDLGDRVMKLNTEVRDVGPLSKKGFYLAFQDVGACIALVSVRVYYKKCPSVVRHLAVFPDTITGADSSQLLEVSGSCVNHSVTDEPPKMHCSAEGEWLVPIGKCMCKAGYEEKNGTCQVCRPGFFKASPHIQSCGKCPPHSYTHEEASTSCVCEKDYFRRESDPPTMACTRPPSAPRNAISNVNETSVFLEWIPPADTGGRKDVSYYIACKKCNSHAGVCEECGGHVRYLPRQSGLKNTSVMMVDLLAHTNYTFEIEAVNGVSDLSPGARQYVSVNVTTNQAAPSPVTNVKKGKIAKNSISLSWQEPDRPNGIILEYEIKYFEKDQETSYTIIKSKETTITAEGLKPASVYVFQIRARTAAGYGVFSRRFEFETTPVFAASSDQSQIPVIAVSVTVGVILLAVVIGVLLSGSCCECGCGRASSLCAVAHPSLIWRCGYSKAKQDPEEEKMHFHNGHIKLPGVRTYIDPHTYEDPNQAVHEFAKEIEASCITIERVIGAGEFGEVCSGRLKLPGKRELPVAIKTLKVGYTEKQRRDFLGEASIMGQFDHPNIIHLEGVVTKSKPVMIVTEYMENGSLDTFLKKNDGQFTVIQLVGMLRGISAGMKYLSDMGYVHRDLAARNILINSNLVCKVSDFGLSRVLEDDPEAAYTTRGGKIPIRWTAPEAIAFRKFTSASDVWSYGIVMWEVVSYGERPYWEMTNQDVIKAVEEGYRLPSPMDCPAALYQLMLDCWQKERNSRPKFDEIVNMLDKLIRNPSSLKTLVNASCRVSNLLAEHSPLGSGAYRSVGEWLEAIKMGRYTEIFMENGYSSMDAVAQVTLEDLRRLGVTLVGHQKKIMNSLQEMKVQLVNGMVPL
T7 sequence (Q2M2I8 whole entry, the tested form may be a part): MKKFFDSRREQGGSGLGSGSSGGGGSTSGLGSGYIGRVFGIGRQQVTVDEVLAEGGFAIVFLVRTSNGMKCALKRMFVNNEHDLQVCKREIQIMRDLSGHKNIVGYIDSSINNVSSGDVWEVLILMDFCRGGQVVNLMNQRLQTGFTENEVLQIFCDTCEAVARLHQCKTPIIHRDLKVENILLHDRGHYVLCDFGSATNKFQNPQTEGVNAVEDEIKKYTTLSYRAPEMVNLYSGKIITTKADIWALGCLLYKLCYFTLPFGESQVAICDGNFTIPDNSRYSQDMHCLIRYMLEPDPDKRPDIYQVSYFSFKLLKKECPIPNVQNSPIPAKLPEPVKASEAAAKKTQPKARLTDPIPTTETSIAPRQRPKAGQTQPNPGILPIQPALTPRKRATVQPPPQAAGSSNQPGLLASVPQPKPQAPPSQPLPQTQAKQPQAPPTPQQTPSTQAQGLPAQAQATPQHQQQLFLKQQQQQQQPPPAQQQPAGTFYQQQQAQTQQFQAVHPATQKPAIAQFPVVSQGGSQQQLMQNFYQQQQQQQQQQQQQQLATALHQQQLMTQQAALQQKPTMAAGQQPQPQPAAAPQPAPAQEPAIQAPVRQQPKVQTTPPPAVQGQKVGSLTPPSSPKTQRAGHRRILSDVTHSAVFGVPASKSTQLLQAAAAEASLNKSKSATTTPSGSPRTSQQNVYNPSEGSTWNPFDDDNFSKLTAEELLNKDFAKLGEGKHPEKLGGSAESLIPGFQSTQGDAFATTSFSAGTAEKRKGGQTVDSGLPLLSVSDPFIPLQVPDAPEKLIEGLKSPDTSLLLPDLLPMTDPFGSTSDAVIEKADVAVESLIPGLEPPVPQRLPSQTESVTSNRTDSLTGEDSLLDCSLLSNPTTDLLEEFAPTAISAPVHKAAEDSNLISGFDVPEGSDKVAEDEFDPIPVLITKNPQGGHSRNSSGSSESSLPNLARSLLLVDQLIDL

Row | dTm [1] [K] | dTm [2] [K] | dTm [3] [K] | dTm [4] [K] | dTm [5] [K] | dTm [6] [K] | dTm [7] [K] | dTm [8] [K] | dTm [9] [K] | dTm [10] [K] | SMILES
1 | 0.25 | 1.29 | 1.97 | 1.85 | -1.22 | -0.0242 | -0.08 | 4.69 | 9.57 | -0.00683 | O=C(Nc1cccc(-c2c[nH]c3ncnc(N4CCOCC4)c23)c1)C1(C(=O)Nc2ccc(F)c(Br)c2F)CC1 [Compound 26]
2 | 1.27 | 2.15 | -0.75 | 2.19 | 9.05 | -1.02 | 2.03 | 1.75 | 4.66 | -0.80 | CCc1ccc(NC(=O)C2(C(=O)Nc3cccc(-c4c[nH]c5ncnc(N6CCOCC6)c45)c3)CC2)cc1 [Compound 15]
3 | 0.00 | 6.71 | 0.08 | 10.84 | 16.54 | -2.09 | 5.32 | 3.88 | 7.54 | 0.14 | Cc1ccc(-n2nc(C(C)(C)C)cc2NC(=O)Nc2cccc(-c3c[nH]c4ncnc(N5CCOCC5)c34)c2)cc1 [Compound 29]
4 | 0.75 | 2.05 | 0.79 | 2.59 | 5.61 | -0.94 | 3.45 | 2.10 | 7.72 | 0.71 | O=C(Nc1cccc(-c2c[nH]c3ncnc(N4CCOCC4)c23)c1)C1(C(=O)Nc2ccc(F)c(F)c2)CC1 [Compound 17]
5 | 0.34 | 0.44 | -0.32 | 3.09 | 6.37 | -1.06 | 4.69 | 1.23 | 6.71 | 0.58 | COc1cc(NC(=O)C2(C(=O)Nc3cccc(-c4c[nH]c5ncnc(N6CCOCC6)c45)c3)CC2)ccc1F [Compound 21]
6 | 0.19 | 5.80 | -0.28 | 3.12 | 1.60 | 0.98 | 3.06 | 2.40 | 7.81 | -0.0373 | Cc1ccc(C(=O)Nc2ccc(CN3CCN(C)CC3)c(C(F)(F)F)c2)cc1C#Cc1c[nH]c2ncnc(N3CCOCC3)c12 [Compound 1]
7 | 0.32 | 1.57 | 1.93 | 1.69 | -0.86 | 0.24 | -2.54 | 4.91 | 6.63 | -0.48 | O=C(Nc1cccc(-c2c[nH]c3ncnc(N4CCOCC4)c23)c1)C1(C(=O)Nc2cc(Br)c(F)cc2F)CC1 [Compound 25]
8 | 0.40 | 0.40 | 2.67 | 0.61 | 0.18 | -0.12 | -2.65 | 3.15 | 5.45 | 0.53 | O=C(Nc1cc(F)cc(Br)c1)C1(C(=O)Nc2cccc(-c3c[nH]c4ncnc(N5CCOCC5)c34)c2)CC1 [Compound 27]
9 | 0.55 | 3.25 | -1.48 | 5.10 | 7.66 | -0.68 | 1.95 | 1.22 | 3.26 | -0.17 | O=C(Nc1cccc(-c2c[nH]c3ncnc(N4CCOCC4)c23)c1)c1cccn(-c2ccc(F)cc2)c1=O [Compound 4]
10 | -0.26 | 2.41 | 1.91 | 4.95 | 4.90 | -0.60 | -0.91 | 4.22 | 4.67 | 0.15 | CC(C)(C)c1cccc(NC(=O)C2(C(=O)Nc3cccc(-c4c[nH]c5ncnc(N6CCOCC6)c45)c3)CC2)c1 [Compound 22]

Row | SMILES | dTm [1] [K] | dTm [2] [K] | dTm [3] [K] | dTm [4] [K] | dTm [5] [K] | dTm [6] [K] | dTm [7] [K] | dTm [8] [K] | dTm [9] [K] | dTm [10] [K]
11 | C[C@@H]1CN(c2cc(-c3n[nH]c4ccc(OC5(C)CC5)cc34)ncn2)C[C@H](C)O1 [MLi2] | 0.07 | -0.96 | -1.36 | -0.11 | -0.14 | 0.14 | 1.29 | 3.50 | 2.01 | -0.44
12 | CCSc1nc(NC)c2c(-c3cccc(NC(=O)Nc4cc(C(C)(C)C)nn4-c4ccc(C)cc4)c3)c[nH]c2n1 [Compound 32] | -0.61 | 0.04 | -0.60 | 9.64 | 3.77 | 0.38 | 0.08 | 0.27 | 0.75 | 0.30
